{
  "source": "ChEMBL document CHEMBL5506008",
  "about": "“Synthesis and biological evaluation of 1-phenyl-tetrahydro-β-carboline-based first dual PRMT5/EGFR inhibitors as potential anticancer agents” (Eur J Med Chem, 2024)",
  "format_in_all_cases": "functional",
  "key": {"MCF7 [1]": {"system": "MCF7", "assay": "Induction of cell cycle arrest in human MCF7 cells assessed as accumulation of cells at S phase at 50 nM incubated for 48 hrs by PI/RNase staining based flow cytometry analysis (reference value: 44.87%)"}, "MCF7 [2]": {"system": "MCF7", "assay": "Induction of apoptosis in human MCF7 cells assessed as live cells at 50 nM measured after 48 hrs by Annexin V-FITC staining based flow cytometry analysis (reference value: 99.26%)"}, "MCF7 [3]": {"system": "MCF7", "assay": "Induction of cell cycle arrest in human MCF7 cells assessed as accumulation of cells at G2 phase at 25 nM incubated for 48 hrs by PI/Rnase staining based flow cytometry analysis (reference value: […]%)"}, "MCF7 [4]": {"system": "MCF7", "assay": "Induction of cell cycle arrest in human MCF7 cells assessed as accumulation of cells at G1 phase at 25 nM incubated for 48 hrs by PI/RNase staining based flow cytometry analysis (reference value: 48.01%)"}, "MCF7 [5]": {"system": "MCF7", "assay": "Induction of apoptosis in human MCF7 cells assessed as dead cells at 25 nM measured after 48 hrs by Annexin V-FITC staining based flow cytometry analysis (reference value: 0.02%)"}, "MCF7 [6]": {"system": "MCF7", "assay": "Induction of apoptosis in human MCF7 cells assessed as live cells at 25 nM measured after 48 hrs by Annexin V-FITC staining based flow cytometry analysis (reference value: 99.26%)"}, "MCF7 [7]": {"system": "MCF7", "assay": "Induction of apoptosis in human MCF7 cells assessed as early apoptotic cells at 50 nM measured after 48 hrs by Annexin V-FITC staining based flow cytometry analysis (reference value: 0.58%)"}, "MCF7 [8]": {"system": "MCF7", "assay": "Induction of apoptosis in human MCF7 cells assessed as late apoptotic cells at 50 nM measured after 48 hrs by Annexin V-FITC staining based flow cytometry analysis (reference value: 0.14%)"}, "MCF7 [9]": {"system": "MCF7", "assay": "Induction of apoptosis in human MCF7 cells assessed as early apoptotic cells at 25 nM measured after 48 hrs by Annexin V-FITC staining based flow cytometry analysis (reference value: 0.58%)"}, "MCF7 [10]": {"system": "MCF7", "assay": "Induction of cell cycle arrest in human MCF7 cells assessed as accumulation of cells at S phase at 25 nM incubated for 48 hrs by PI/RNase staining based flow cytometry analysis (reference value: 44.87%)"}, "MCF7 [11]": {"system": "MCF7", "assay": "Induction of apoptosis in human MCF7 cells assessed as late apoptotic cells at 25 nM measured after 48 hrs by Annexin V-FITC staining based flow cytometry analysis (reference value: 0.14%)"}, "MCF7 [12]": {"system": "MCF7", "assay": "Induction of apoptosis in human MCF7 cells assessed as dead cells at 50 nM measured after 48 hrs by Annexin V-FITC staining based flow cytometry analysis (reference value: 0.02%)"}, "MCF7 [13]": {"system": "MCF7", "assay": "Induction of cell cycle arrest in human MCF7 cells assessed as accumulation of cells at G1 phase at 50 nM incubated for 48 hrs by PI/RNase staining based flow cytometry analysis (reference value: 48.01%)"}, "MCF7 [14]": {"system": "MCF7", "assay": "Induction of cell cycle arrest in human MCF7 cells assessed as accumulation of cells at G2 phase at 50 nM incubated for 48 hrs by PI/Rnase staining based flow cytometry analysis (reference value: […]%)"}},
  "data": [
    {"smiles": "O=C(NC[C@H](O)CN1CCc2ccccc2C1)c1cc(NC2COC2)ncn1", "values": [
      {"measurement": "Activity", "setting": "MCF7 [1]", "result": 22.78, "unit": "%"},
      {"measurement": "Activity", "setting": "MCF7 [2]", "result": 88.73, "unit": "%"},
      {"measurement": "Activity", "setting": "MCF7 [3]", "result": 0.13, "unit": "%"},
      {"measurement": "Activity", "setting": "MCF7 [4]", "result": 56.22, "unit": "%"},
      {"measurement": "Activity", "setting": "MCF7 [5]", "result": 1.47, "unit": "%"},
      {"measurement": "Activity", "setting": "MCF7 [6]", "result": 96.29, "unit": "%"},
      {"measurement": "Activity", "setting": "MCF7 [7]", "result": 3.79, "unit": "%"},
      {"measurement": "Activity", "setting": "MCF7 [8]", "result": 4.31, "unit": "%"},
      {"measurement": "Activity", "setting": "MCF7 [9]", "result": 1.41, "unit": "%"},
      {"measurement": "Activity", "setting": "MCF7 [10]", "result": 43.56, "unit": "%"},
      {"measurement": "Activity", "setting": "MCF7 [11]", "result": 0.83, "unit": "%"},
      {"measurement": "Activity", "setting": "MCF7 [12]", "result": 3.17, "unit": "%"},
      {"measurement": "Activity", "setting": "MCF7 [13]", "result": 66.11, "unit": "%"},
      {"measurement": "Activity", "setting": "MCF7 [14]", "result": 9.98, "unit": "%"}
    ]}
  ]
}
